Experimental data reported in patent US20250155427A1, “CELLS […] TASTE RECEPTORS AND USES THEREOF” (Firmenich Incorporated, priority 2022, published 2025).

Target: T1, human T1R1, a rat-human T1R3 chimera, and the promiscuous G-protein G16gust25 (UniProt Q7RTX1+Q923K1, A568E/A645S/A698V/A702T/A793V/A807V/C582S/C678S/E725V/E827G/F612A/F622V/F805L/I617V/I740A/I779T/I803L/K818R/L735F/L823M/L825Q/M644L/M706V/M729T/N675D/Q717H/Q757R/Q795R/Q831P/R632Q/R634S/S576L/S610P/S635P/S637R/S679G/T588V/T694M/T813A/V584A/V718M/V723A/V738A/V744T/V821L/W599R/W676R/W824R/Y598H/Y680C/Y794L)
T1 sequence (Q7RTX1 21-841): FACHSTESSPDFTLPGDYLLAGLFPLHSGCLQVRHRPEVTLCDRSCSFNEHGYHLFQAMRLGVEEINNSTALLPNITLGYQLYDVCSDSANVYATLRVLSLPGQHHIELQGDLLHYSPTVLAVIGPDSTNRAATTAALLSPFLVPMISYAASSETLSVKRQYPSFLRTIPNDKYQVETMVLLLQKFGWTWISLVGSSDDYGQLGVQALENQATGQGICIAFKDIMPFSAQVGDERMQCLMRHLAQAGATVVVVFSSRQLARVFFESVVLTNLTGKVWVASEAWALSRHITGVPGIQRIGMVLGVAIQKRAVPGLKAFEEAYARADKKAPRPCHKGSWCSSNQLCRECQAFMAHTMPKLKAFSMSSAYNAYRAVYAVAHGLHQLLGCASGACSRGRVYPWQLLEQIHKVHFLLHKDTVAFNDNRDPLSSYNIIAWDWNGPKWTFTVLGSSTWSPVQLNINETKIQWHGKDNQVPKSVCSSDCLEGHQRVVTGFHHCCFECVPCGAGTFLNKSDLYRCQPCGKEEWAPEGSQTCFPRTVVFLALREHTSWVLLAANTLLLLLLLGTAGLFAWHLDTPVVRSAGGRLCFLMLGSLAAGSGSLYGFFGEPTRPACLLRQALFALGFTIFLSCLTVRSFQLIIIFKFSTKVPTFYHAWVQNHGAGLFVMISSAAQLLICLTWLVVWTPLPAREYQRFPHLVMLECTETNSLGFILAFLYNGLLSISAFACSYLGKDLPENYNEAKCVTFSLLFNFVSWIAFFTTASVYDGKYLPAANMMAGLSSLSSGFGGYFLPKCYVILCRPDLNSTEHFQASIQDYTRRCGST
T1 sequence (Q923K1 with tags, fused parts or gaps A568E/S576L/C582S/V584A/T588V/Y598H/W599R/S610P/F612A/I617V/F622V/R632Q/R634S/S635P/S637R/M644L/A645S/N675D/W676R/C678S/S679G/Y680C/T694M/A698V/A702T/M706V/Q717H/V718M/V723A/E725V/M729T/L735F/V738A/I740A/V744T/Q757R/I779T/A793V/Y794L/Q795R/I803L/F805L/A807V/T813A/K818R/V821L/L823M/W824R/L825Q/E827G/Q831P limits assumed): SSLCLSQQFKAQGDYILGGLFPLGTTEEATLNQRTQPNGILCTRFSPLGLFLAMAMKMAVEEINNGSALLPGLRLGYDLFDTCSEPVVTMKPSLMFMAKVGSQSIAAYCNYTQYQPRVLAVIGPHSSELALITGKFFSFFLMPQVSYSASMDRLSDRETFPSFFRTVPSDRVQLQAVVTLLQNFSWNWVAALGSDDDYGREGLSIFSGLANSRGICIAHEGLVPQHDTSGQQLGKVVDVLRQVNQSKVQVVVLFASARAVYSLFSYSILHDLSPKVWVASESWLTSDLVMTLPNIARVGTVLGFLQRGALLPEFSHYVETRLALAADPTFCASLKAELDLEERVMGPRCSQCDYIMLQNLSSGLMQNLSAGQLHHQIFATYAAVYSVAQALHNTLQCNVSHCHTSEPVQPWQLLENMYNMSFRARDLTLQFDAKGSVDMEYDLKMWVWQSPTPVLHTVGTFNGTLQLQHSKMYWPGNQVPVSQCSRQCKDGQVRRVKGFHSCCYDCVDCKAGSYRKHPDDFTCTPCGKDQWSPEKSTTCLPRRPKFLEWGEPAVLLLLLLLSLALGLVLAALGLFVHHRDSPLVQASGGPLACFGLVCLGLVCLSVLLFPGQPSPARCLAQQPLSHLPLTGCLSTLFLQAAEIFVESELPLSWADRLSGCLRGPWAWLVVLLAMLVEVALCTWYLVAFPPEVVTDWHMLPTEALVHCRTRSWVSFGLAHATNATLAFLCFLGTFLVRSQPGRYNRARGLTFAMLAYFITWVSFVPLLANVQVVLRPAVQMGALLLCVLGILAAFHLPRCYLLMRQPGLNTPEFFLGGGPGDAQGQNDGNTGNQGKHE
Conditions: MSG dose response, U2OS cell line, FIG. 4A
Excerpt: The x-axis plots the log of MSG concentration, while the y-axis plots fold change in fluorescence of a Ca^2+-sensitive fluorescent dye in response to intracellular Ca^2+ concentration.
The x-axis plots the log of savory compound concentration, while the y-axis plots fold change in fluorescence of a Ca^2+-sensitive fluorescent dye in response to intracellular Ca^2+ concentration. FIG. 4A also indicates the EC50 for each compound.

N[C@@H](CCC(=O)O)C(=O)[O-].[Na+] [MSG, monosodium glutamate]
fold change in fluorescence of a Ca^2+-sensitive fluorescent dye in response to intracellular Ca^2+ concentration: fluorescence detectably increases as MSG concentration increases
